Test results: the NIST ThermoML archive (doi:10.1021/acs.jced.5b00285)

Settings: 101.33 kPa, Liquid; for electrical conductivity: Alternating current cell with electrodes; for mass density: Vibrating tube method

CCCCn1cc[n+](C)c1.O=S(=O)([N-]S(=O)(=O)C(F)(F)C(F)(F)F)C(F)(F)C(F)(F)F [1-butyl-3-methylimidazolium bis(perfluoroethylsulfonyl)imide]
Settings | electrical conductivity [S/m] | mass density [kg/m3] | viscosity [mPa·s]
273.15 K | 0.0324 | 1539.6 | 579.1
278.15 K | 0.046 | 1534 | 398.8
283.15 K | 0.0634 | 1528.5 | 282.2
288.15 K | 0.0853 | 1523.88 | 205.3
293.15 K | 0.112 | 1518.55 | 153.3
298.15 K | 0.145 | 1513.25 | 115.9
303.15 K | 0.183 | 1507.96 | 89.72
308.15 K | 0.227 | – | –
313.15 K | 0.278 | 1497.47 | 56.57
318.15 K | 0.336 | – | –
323.15 K | 0.4 | 1487.06 | 37.86
328.15 K | 0.475 | – | –
333.15 K | 0.549 | 1476.73 | 26.63
338.15 K | 0.638 | – | –
343.15 K | 0.724 | 1466.47 | 19.48
348.15 K | 0.831 | – | –
353.15 K | 0.928 | 1456.27 | 14.74
358.15 K | 1.05 | – | –
363.15 K | – | 1446.14 | 11.48
368.15 K | 1.29 | – | –
378.15 K | 1.56 | – | –
388.15 K | 1.86 | – | –
398.15 K | 2.16 | – | –
408.15 K | 2.49 | – | –
418.15 K | 2.83 | – | –
428.15 K | 3.19 | – | –
438.15 K | 3.56 | – | –
448.15 K | 3.94 | – | –
458.15 K | 4.33 | – | –
468.15 K | 4.72 | – | –

CCCCCC[n+]1ccn(C)c1.O=S(=O)([N-]S(=O)(=O)C(F)(F)F)C(F)(F)F
Settings | electrical conductivity [S/m] | mass density [kg/m3] | viscosity [mPa·s]
278.15 K | 0.0776 | 1391.02 | 210.6
283.15 K | – | 1386.34 | –
288.15 K | 0.136 | 1381.65 | 116.7
293.15 K | – | 1376.98 | –
298.15 K | 0.218 | 1372.35 | 70.51
303.15 K | – | 1367.74 | –
308.15 K | 0.328 | 1363.15 | 45.51
313.15 K | – | 1358.58 | –
318.15 K | 0.466 | 1354.02 | 31.03
323.15 K | – | 1349.49 | –
328.15 K | 0.634 | 1344.97 | 22.14
333.15 K | – | 1340.47 | –
338.15 K | 0.83 | 1335.98 | 16.4
343.15 K | – | 1331.51 | –
348.15 K | 1.05 | 1327.05 | 12.59
353.15 K | – | 1322.61 | –
358.15 K | 1.3 | 1318.18 | 9.957
363.15 K | – | 1313.77 | –
368.15 K | 1.58 | – | 8.066
378.15 K | 1.88 | – | 6.673
388.15 K | 2.19 | – | 5.623
398.15 K | 2.53 | – | 4.819
408.15 K | 2.88 | – | 4.19
418.15 K | 3.24 | – | –
428.15 K | 3.62 | – | –
438.15 K | 4.01 | – | –
448.15 K | 4.41 | – | –
458.15 K | 4.82 | – | –
468.15 K | 5.24 | – | –

CCCCCCCCn1cc[n+](C)c1.O=S(=O)([N-]S(=O)(=O)C(F)(F)F)C(F)(F)F
Settings | electrical conductivity [S/m]
273.15 K | 0.0308
278.15 K | 0.0432
283.15 K | 0.059
288.15 K | 0.0784
293.15 K | 0.102
298.15 K | 0.131
303.15 K | 0.164
308.15 K | 0.204
313.15 K | 0.246
318.15 K | 0.298
323.15 K | 0.351
328.15 K | 0.415
333.15 K | 0.478
338.15 K | 0.556
343.15 K | 0.627
348.15 K | 0.72
353.15 K | 0.801
358.15 K | 0.906
368.15 K | 1.11
378.15 K | 1.34
388.15 K | 1.59
398.15 K | 1.85
408.15 K | 2.13
418.15 K | 2.42
428.15 K | 2.72
438.15 K | 3.04
448.15 K | 3.36
458.15 K | 3.69
468.15 K | 4.03

CC(=O)[O-].CCn1cc[n+](C)c1 [1-ethyl-3-methylimidazolium acetate]
Settings | electrical conductivity [S/m] | mass density [kg/m3] | viscosity [mPa·s]
278.15 K | – | 1111.95 | 701.2
288.15 K | – | 1105.67 | 288
298.15 K | 0.278 | 1099.44 | 141.1
308.15 K | 0.471 | 1093.24 | 78.27
318.15 K | 0.733 | 1087.13 | 47.69
328.15 K | 1.07 | 1081.09 | 31.26
338.15 K | 1.48 | 1075.11 | 21.77
348.15 K | 1.96 | 1069.17 | 16.01
358.15 K | 2.5 | 1063.3 | 12.19
368.15 K | 3.11 | – | 9.558
378.15 K | 3.8 | – | 7.71
388.15 K | 4.53 | – | 6.362
398.15 K | 5.31 | – | 5.356
408.15 K | 6.13 | – | 4.589
418.15 K | 6.92 | – | –
